# Measured values as given in US20240082212A1, “USE OF MDMA FOR TREATMENT OF STRESS-RELATED DISORDERS” (priority 2022, published 2024).
# “And” between values parts separate entries of the source, which are not always exact repeats. Equal values may be shown once. “Also recorded” adds a separate entry of the source.
# How the values were obtained:
# CD (Sprague Dawley) rats = assay: Rat telemetry: heart rate, blood pressure, body temperature, activity after cumulative SC dosing; type: in vivo; conditions: for Rank Order Blood Pressures (Systolic, Diastolic, and Mean Arterial) Effects / Rank Order Body Temperature Effects / Rank Order General Activity Effects / Rank Order Heart Rate Measurement Effects: telemetry, cumulative SC dosing, dose groups stated in the value
# Text: Methods. A total of 42 adult male CD® (Sprague Dawley) rats (Charles River Laboratories) were surgically implanted with DSI radiotelemetry devices by personnel at Charles River Laboratories Raleigh, NC, per their test site SOPs. Telemetry devices supported continuous recording of temperature, activity, blood pressure and heart rate. Telemeterized rats were shipped to the Charles River Laboratories testing facility (Mattawan, MI) and acclimated to the environment for at least 1 week prior to experimentation. Animals were pair-housed in solid bottom cages with nonaromatic bedding. On the dosing day, animals were singly housed and then returned to the paired cohort following the dosing/telemetry recording phase. Diet (Lab Diet® Certified Rodent Diet #5CR4) and tap water via an automatic water system were available ad libitum, except during designated procedures. Temperature and humidity were maintained according to the Testing Facility SOP. Animals were randomized into treatment groups using a standard, by weight, measured value randomization procedure. Body weight was determined for each rat prior to dosing.
# As illustrated in the Table, a total of 36 rats were included in the study. The vehicle and 2 test article doses were administered in a volume of 1 mL/kg to each of 3 groups of n=12 telemeterized rats via subcutaneous injection four times on a given day, followed by neurobehavioral evaluations. This series was repeated 3 times on study. Each group received all 3 dose levels of the applicable test or control article in ascending order with a 1-week washout between dose levels.
# Mortality/cage side clinical observations were conducted for all study animals at least twice daily beginning upon receipt through termination, except on days of receipt and termination where frequency was at least once daily. Detailed clinical observations were conducted for all study animals prior to each of the four cumulative doses in a series. Individual body weights were conducted for all study animals at transfer, prior to randomization, on the day of dosing on each of the 3 cycles of dosing. The body weights recorded at transfer and prior to randomization are not reported but are maintained in the study file. Veterinary care was available throughout the course of the study, and animals were examined by the veterinary staff as needed based on clinical signs or other changes. All animals were provided with HydroGel the night prior to their respective dosing days to potentially mitigate any animal welfare issues related to fluid loss/dehydration.
# Telemetry monitoring was conducted for all animals 2 hours prior to dosing and through to 7.5 hours following the last (4th) cumulative dose of each series, which included continuous data collection of body temperature, activity, heart rate, and blood pressure (systolic, diastolic, and mean arterial) using telemetry.
# The total period of time over which the statistical analyses were conducted encompassed the entire dosing period for all animals (i.e., Dose 1 through 7.5 hour post-4th dose) in an effort to draw conclusions regarding the effects of the dosing procedure and cumulative changes by allowing comparisons between the cumulative dosing periods. The following statistical analyses were performed for each analysis segment.
# All time-series data comparisons conducted via statistical analysis are relative to the control treatment and are based on the LSMean values. Additionally, the change values used for the statistical analysis were calculated using a baseline of the 2 hours of pre-dose data, prior to the first compound injection of the series. The raw change values were analyzed.
# [1] = Rat brain monoamine and metabolite concentrations 1 week after cumulative SC dosing; conditions: for 5-HIAA mean brain concentration / 5-HT mean brain concentration: frontal cortex; for 5-HIAA mean brain concentration / 5-HT mean brain concentration / DA mean brain concentration / DOPAC mean brain concentration / HVA mean brain concentration: male rat; for DA mean brain concentration / DOPAC mean brain concentration / HVA mean brain concentration: striatum
# C57BL/6J mice = assay: Head twitch response (HTR); type: in vivo, mouse; conditions: 3 mg/kg IP, 30 minutes after injection; listed as R,S-MDMA
# Procedure: Male C57BL/6J mice at 6-8 weeks of age were purchased from Jackson Laboratories and housed four per cage in a climate and humidity-controlled room in a vivarium at the University of California, San Diego. The room operated on a reverse light cycle (lights on at 1900 h, off at 0700 h) with food and water available ad libitum, except during testing. All testing was performed during 1000 h and 1800 h. After a minimum of 1 week acclimation to the housing facility, mice were anesthetized using a mixture of ketamine (100 mg/kg IP) and xylazine (10 mg/kg IP). Under deep anesthesia, an incision was made in the scalp and a small neodymium magnet (4.57 mm×4.57 mm×2.03 mm) was attached to the cranium using cyanoacrylate and dental cement. After at least a 2-week recovery period, the mouse was removed from the home cage and injected intraperitoneally with the test article or vehicle (0.9% sterile saline). Immediately, the mouse was placed in a glass cylinder surrounded by a magnetometer coil and the head twitch response (HTR) was assessed for 30 minutes (Halberstadt and Geyer, 2013). The output of the coil was recorded using a Powerlab/8SP with LabChart v.7.3.2 (ADInstruments). Coil voltage was amplified, low-pass filtered (2-10 kHz cut-off frequency) to remove interference, digitized and sampled at 20 kHz. Head twitches were identified using a validated technique based on artificial intelligence (Halberstadt, 2020). Events in the recordings were transformed into a visual representation in the time-frequency domain and deep features were extracted using the pretrained convolutional neural network ResNet-50, and the images were subsequently classified using a Support Vector Machine algorithm.
# Test articles (R,S-MDA, R(−)-MDA, S-(+)MDA), R,S-MDMA, R(−)-MDMA and S(+)-MDMA) were supplied by the NIDA Drug Supply Program as neat powders. Racemic MDA and MDMA and their enantiomers were dissolved in saline and injected IP at a volume of 5 mL/kg. Each dose was calculated based on the salt form of the compounds. For each treatment condition, six groups of mice (n=5-6/group) were treated with vehicle or the test drug (0.1, 0.3, 1, 3, or 10 mg/kg) and HTR assessed for 30 minutes immediately following injections. To avoid carryover effects, each treatment condition was performed at least seven days apart. Total number of mice used for the experiment was 63.
# [2] = maximum change, R-MDMA and racemic MDMA 10, 20 mg/kg/day, S-MDMA 5, 10 mg/kg/day, 4 hourly SC injections
# [3] = racemic MDMA 20 mg/kg/day, S-MDMA 10 mg/kg/day, approximate
# [4] = 1 week after 4 hourly SC injections of 2.5 mg/kg
# [5] = 1 week after 4 hourly SC injections of 5 mg/kg
# [6] = 1 week after 4 hourly SC injections of 5 mg/kg, 5 mg/kg
# [7] = 1 week after 4 hourly SC injections of 10 mg/kg, N=2
# [8] = 1 week after 4 hourly SC injections of 10 mg/kg, N=2, 10 mg/kg
smiles,measurement,setting,value
"CNC(C)Cc1ccc2c(c1)OCO2 (racemic) [Racemic MDMA, 3,4-methylenedioxymethamphetamine]",hemodynamic parameters (systolic/diastolic/mean arterial blood pressures and heart rate),"CD (Sprague Dawley) rats; 4 hourly SC injections, cumulative doses 5, 10, or 20 mg/kg/day",dose-dependent blood pressure-increasing effects
same,body temperature response,"CD (Sprague Dawley) rats; S-MDMA 5, 10 mg/kg/day, racemic-MDMA 10, 20 mg/kg/day, 4 hourly SC injections",hyperthermic response
same,activity (implanted telemetry devices),"CD (Sprague Dawley) rats; all cumulative doses (5, 10, or 20 mg/kg/day)",Activity-increasing effects
same,blood pressure increase [mean arterial pressure],CD (Sprague Dawley) rats; [2],up to +46%
same,heart rate increase,CD (Sprague Dawley) rats; [2],up to +37%
same,peak body temperatures,"CD (Sprague Dawley) rats; overall mean magnitude of change, 4 hourly SC injections",40.0 °C
same,period of significantly increased body temperature compared to R-MDMA (10 mg/kg/day),CD (Sprague Dawley) rats; [3],1-4 hours post initiation of dosing
same,period of significantly increased heart rate compared to R-MDMA (10 mg/kg/day),CD (Sprague Dawley) rats; [3],3-10 hours post initiation of dosing
same,period of significantly increased mean arterial blood pressure compared to R-MDMA (10 mg/kg/day),CD (Sprague Dawley) rats; [3],1-3 hours post initiation of dosing
same,period of significantly increased systolic blood pressure compared to R-MDMA (10 mg/kg/day),CD (Sprague Dawley) rats; [3],1-3 hours post initiation of dosing
same,"Rank Order Blood Pressures (Systolic, Diastolic, and Mean Arterial) Effects",CD (Sprague Dawley) rats; listed as Rac-MDMA,R-MDMA (20 mg/kg/day) < S-MDMA (10 mg/kg/day) < Rac-MDMA (20 mg/kg/day); also recorded: Rac-MDMA (0 mg/kg/day) < Rac-MDMA (10 mg/kg/day) < Rac-MDMA (20 mg/kg/day); also recorded: R-MDMA (10 mg/kg/day) < S-MDMA (10 mg/kg/day) < Rac-MDMA (20 mg/kg/day)
same,Rank Order Body Temperature Effects,CD (Sprague Dawley) rats; listed as Rac-MDMA,R-MDMA (20 mg/kg/day) < S-MDMA (10 mg/kg/day) < Rac-MDMA (20 mg/kg/day); also recorded: Rac-MDMA (0 mg/kg/day) < Rac-MDMA (10 mg/kg/day) < Rac-MDMA (20 mg/kg/day); also recorded: R-MDMA (10 mg/kg/day) < S-MDMA (10 mg/kg/day) < Rac-MDMA (20 mg/kg/day)
same,Rank Order General Activity Effects,CD (Sprague Dawley) rats; listed as Rac-MDMA,R-MDMA (20 mg/kg/day) < S-MDMA (10 mg/kg/day) < Rac-MDMA (20 mg/kg/day); also recorded: Rac-MDMA (0 mg/kg/day) < Rac-MDMA (10 mg/kg/day) < Rac-MDMA (20 mg/kg/day); also recorded: R-MDMA (10 mg/kg/day) < S-MDMA (10 mg/kg/day) < Rac-MDMA (20 mg/kg/day)
same,Rank Order Heart Rate Measurement Effects,CD (Sprague Dawley) rats; listed as Rac-MDMA,R-MDMA (20 mg/kg/day) < S-MDMA (10 mg/kg/day) < Rac-MDMA (20 mg/kg/day); also recorded: Rac-MDMA (0 mg/kg/day) < Rac-MDMA (10 mg/kg/day) < Rac-MDMA (20 mg/kg/day); also recorded: R-MDMA (10 mg/kg/day) < S-MDMA (10 mg/kg/day) < Rac-MDMA (20 mg/kg/day)
same,"Rank Order Blood Pressures (Systolic, Diastolic, and Mean Arterial) Effects",CD (Sprague Dawley) rats; listed as Rac.-MDMA,R-MDMA (10 mg/kg/day) < S-MDMA (5 mg/kg/day) < Rac.-MDMA (10 mg/kg/day)
same,Rank Order Body Temperature Effects,CD (Sprague Dawley) rats; listed as Rac.-MDMA,R-MDMA (10 mg/kg/day) < S-MDMA (5 mg/kg/day) < Rac.-MDMA (10 mg/kg/day)
same,Rank Order General Activity Effects,CD (Sprague Dawley) rats; listed as Rac.-MDMA,R-MDMA (10 mg/kg/day) < S-MDMA (5 mg/kg/day) < Rac.-MDMA (10 mg/kg/day)
same,Rank Order Heart Rate Measurement Effects,CD (Sprague Dawley) rats; listed as Rac.-MDMA,R-MDMA (10 mg/kg/day) < S-MDMA (5 mg/kg/day) < Rac.-MDMA (10 mg/kg/day)
same,frontal cortex 5-HT (serotonin) compared to vehicle,"[1]; cumulative SC, 5 mg/kg/injection, 1 week after dosing",significantly reduced frontal cortex 5-HT concentrations
same,5-HIAA mean brain concentration,[1]; [4],368.17 ng/g
same,5-HT mean brain concentration,[1]; [4],183.90 ng/g
same,5-HIAA mean brain concentration,[1]; [5],234.63 ng/g
same,5-HT mean brain concentration,[1]; [6],88.38 ng/g and 88.38 b** n* p* ng/g
same,5-HIAA mean brain concentration,[1]; [7],235.00 ng/g
same,5-HT mean brain concentration,[1]; [7],100.85 ng/g
same,DA mean brain concentration,[1]; [4],5956.67 ng/g
same,DOPAC mean brain concentration,[1]; [4],1811.00 ng/g
same,HVA mean brain concentration,[1]; [4],706.83 ng/g
same,DA mean brain concentration,[1]; [5],5190.63 ng/g
same,HVA mean brain concentration,[1]; [5],577.00 ng/g
same,DOPAC mean brain concentration,[1]; [6],1962.75 ng/g and 1962.75 h** ng/g
same,DA mean brain concentration,[1]; [7],7405.00 ng/g
same,DOPAC mean brain concentration,[1]; [8],2015.00 ng/g and 2015.00 h* ng/g
same,HVA mean brain concentration,[1]; [8],923.50 ng/g and 923.50 d**h* ng/g
same,head twitch response (HTR) compared to control (vehicle),C57BL/6J mice,decrease in HTR
